Experimental findings from ChEMBL document CHEMBL1201862, “PubChem BioAssay data set” (2004) are described below.

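Protocol summary: plate cells (96-well), add compound at 5 concentrations, incubate 48 h, interpolate endpoints linearly. GI50 marks 50% less growth.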 The source made the active and inactive calls. Cut-off read from the data, not from the text of the source: active = GI50 up to about 1.1 µM and inactive = higher.

Test systems include BT-549; DU-145; EKVX; HOP-62; Hs-578T; K562; MDA-MB-435; MOLT-4; NCI-H226; OVCAR-3; OVCAR-5; PC-3; RPMI-8226; SF-539; SK-MEL-2; SNB-19; SNB-75; SW-620; U-251; UACC-257.
Assay in all cases: NCI-60 cell line screen, 48 h

In the case of `Cc1cc(/N=C/c2ccc(Cl)cc2)n(-c2ccccc2)n1`, the GI50 in the assay with BT-549 was 31.8 µM (inactive); in the assay with DU-145, 50.9 µM (inactive); in the assay on EKVX, 33 µM (inactive); with HOP-62 it was 36 µM (inactive); in the assay on Hs-578T, 58.7 µM (inactive); in the assay on K562 it was 12.9 µM (inactive). Also, the GI50 is 31.1 µM (inactive) in the assay with MDA-MB-435; 32.2 µM (inactive) with MOLT-4; 43.6 µM (inactive) in the assay with NCI-H226; 22.8 µM (inactive) with OVCAR-3; 87.5 µM (inactive) with OVCAR-5; 53.8 µM (inactive) in the assay on PC-3. Also, the GI50 is 24.6 µM (inactive) in the assay with RPMI-8226; > 100 µM (inactive) with SF-539; 53.5 µM (inactive) in the assay with SK-MEL-2; 61.1 µM (inactive) in the assay with SNB-19; 32.4 µM (inactive) with SNB-75; 39.2 µM (inactive) with SW-620. The GI50 is > 100 µM (inactive) in the assay with U-251 and 63.5 µM (inactive) in the assay with UACC-257.
For `NC(=S)Nc1nc(=S)[nH]c2[nH]ccc12`, the GI50 in the assay on BT-549 is 93.8 µM (inactive); in the assay with DU-145, > 100 µM (inactive); with EKVX it was 94.2 µM (inactive); in the assay with HOP-62, > 100 µM (inactive); in the assay on Hs-578T, 23.4 µM (inactive); in the assay on K562, 31 µM (inactive). Moreover, the GI50 in the assay on MDA-MB-435 is 30.9 µM (inactive); with MOLT-4, 21.1 µM (inactive); in the assay with NCI-H226, > 100 µM (inactive); in the assay on OVCAR-3 it was 29.7 µM (inactive); with OVCAR-5, > 100 µM (inactive); in the assay on PC-3, 74.3 µM (inactive). For the same compound, the GI50 in the assay with RPMI-8226 is 25.9 µM (inactive); with SF-539, > 100 µM (inactive); in the assay with SK-MEL-2 it was > 100 µM (inactive); with SNB-19, > 100 µM (inactive); in the assay on SNB-75, < 0.01 µM (active); in the assay with SW-620 it was > 100 µM (inactive). Further, the GI50 was 93.1 µM (inactive) with U-251 and > 100 µM (inactive) with UACC-257.
As to `O=C(C1OC1c1cccc([N+](=O)[O-])c1)C12CC3CC(CC(C3)C1)C2` (stereo not given), the GI50 is 3.09 µM (inactive) in the assay with BT-549; 13.8 µM (inactive) with DU-145; 13.2 µM (inactive) in the assay on EKVX; 10.7 µM (inactive) in the assay with HOP-62; 3.66 µM (inactive) in the assay with Hs-578T; 2.58 µM (inactive) in the assay on K562. The GI50 with MDA-MB-435 was 3.52 µM (inactive); in the assay with MOLT-4, 2.82 µM (inactive); in the assay with NCI-H226 it was 10.5 µM (inactive); with OVCAR-3 it was 3.81 µM (inactive); in the assay with OVCAR-5, 7.21 µM (inactive); with PC-3, 5.5 µM (inactive). Moreover, the GI50 is 2.13 µM (inactive) with RPMI-8226; 8.79 µM (inactive) in the assay on SF-539; 14.3 µM (inactive) with SK-MEL-2; 8.13 µM (inactive) with SNB-19; 6.78 µM (inactive) in the assay with SNB-75; 2.97 µM (inactive) in the assay with SW-620. For the same compound, the GI50 in the assay with U-251 was 2.88 µM (inactive); in the assay on UACC-257 it was 11.7 µM (inactive).
As to `CCOC(=O)c1cccc([N+](=O)[O-])c1N`, the GI50 with BT-549 was > 100 µM (inactive); in the assay on DU-145 it was > 100 µM (inactive); in the assay on EKVX, 6.11 µM (inactive); in the assay on HOP-62 it was > 100 µM (inactive); in the assay with Hs-578T it was 41.2 µM (inactive); with K562, > 100 µM (inactive). Moreover, the GI50 in the assay on MDA-MB-435, in the assay with MOLT-4, in the assay on NCI-H226, in the assay on OVCAR-3, in the assay on OVCAR-5 and in the assay with PC-3 was > 100 µM (inactive) each time. The GI50 in the assay with RPMI-8226 was > 100 µM (inactive); with SF-539, > 100 µM (inactive); with SK-MEL-2, > 100 µM (inactive); with SNB-19 it was > 100 µM (inactive); in the assay on SNB-75 it was 62.1 µM (inactive); in the assay on SW-620, > 100 µM (inactive). Besides, the GI50 in the assay on U-251 and in the assay on UACC-257 was > 100 µM (inactive) each time.
Regarding `Clc1nc(Cl)c(Cc2ccccc2)c(Cl)n1`, the GI50 is 3.37 µM (inactive) in the assay with BT-549; 14.8 µM (inactive) with DU-145; 19 µM (inactive) in the assay on EKVX; 6.17 µM (inactive) in the assay with HOP-62; 2.66 µM (inactive) in the assay with Hs-578T; 3.08 µM (inactive) with K562. Moreover, the GI50 in the assay with MDA-MB-435 was 4.32 µM (inactive); in the assay on MOLT-4, 2.98 µM (inactive); with NCI-H226, 13.3 µM (inactive); in the assay with OVCAR-3, 2.43 µM (inactive); in the assay on OVCAR-5, 21.8 µM (inactive); in the assay on PC-3, 3.7 µM (inactive). Moreover, the GI50 with RPMI-8226 is 5.32 µM (inactive); with SF-539, 5.3 µM (inactive); in the assay on SK-MEL-2, 7.45 µM (inactive); with SNB-19, 17.9 µM (inactive); in the assay on SNB-75, 5.52 µM (inactive); with SW-620, 3.09 µM (inactive). In addition, the results for the GI50 in the assay on U-251 and in the assay with UACC-257 were 11.7 µM (inactive) and > 10 µM (inactive), respectively.
In the case of `COc1cc2c(SCCN(C)C)nc3ccccc3c2c2ccccc12`, the GI50 with BT-549 is 5.7 µM (inactive); in the assay on DU-145 it was 3.71 µM (inactive); with EKVX, 1.67 µM (inactive); with HOP-62, 1.79 µM (inactive); with Hs-578T, 2.13 µM (inactive); in the assay on K562, 1.72 µM (inactive). Further, the GI50 with MDA-MB-435 was 1.96 µM (inactive); with MOLT-4, 1.54 µM (inactive); in the assay on NCI-H226 it was 1.94 µM (inactive); in the assay on OVCAR-3 it was 2.34 µM (inactive); in the assay with OVCAR-5 it was 1.64 µM (inactive); in the assay with PC-3 it was 2.22 µM (inactive). The GI50 in the assay with RPMI-8226 is 1.76 µM (inactive); in the assay on SF-539, 1.74 µM (inactive); with SK-MEL-2, 1.87 µM (inactive); with SNB-19, 2.45 µM (inactive); in the assay with SNB-75 it was 2.51 µM (inactive); in the assay with SW-620, 1.74 µM (inactive). Also, the GI50 was 1.87 µM (inactive) in the assay on U-251 and 1.77 µM (inactive) with UACC-257.
As for `C[N+](C)(C)CC1CCCC1=O` (stereo not given), the GI50 with BT-549 was 1 µM (active); in the assay on DU-145, 0.0296 µM (active); with EKVX, 2.16 µM (inactive); with HOP-62 it was 29.8 µM (inactive); in the assay with Hs-578T, 3.43 µM (inactive); with K562, 0.377 µM (active). Further, the GI50 with MDA-MB-435 is 1.71 µM (inactive); with MOLT-4 it was 0.249 µM (active); in the assay on NCI-H226 it was 17.2 µM (inactive); in the assay on OVCAR-3 it was 2.36 µM (inactive); in the assay on OVCAR-5 it was 8.22 µM (inactive); in the assay with PC-3, 1.41 µM (inactive). The GI50 with RPMI-8226 was 0.306 µM (active); in the assay on SF-539, 2.98 µM (inactive); in the assay on SK-MEL-2, 5.61 µM (inactive); in the assay on SNB-19 it was 20.2 µM (inactive); in the assay with SNB-75 it was 3.1 µM (inactive); in the assay with SW-620, 0.383 µM (active). Besides, the figures for the GI50 in the assay with U-251 and with UACC-257 were 13.2 µM (inactive) and 5.53 µM (inactive), respectively.
Turning to `COC(=O)Nc1nc2cc(NC(=O)c3ccc(I)cc3)ccc2[nH]1`, the GI50 in the assay with BT-549 is > 100 µM (inactive); in the assay with DU-145, > 100 µM (inactive); in the assay with EKVX, > 100 µM (inactive); with HOP-62 it was > 100 µM (inactive); with Hs-578T it was 84.1 µM (inactive); in the assay on K562, > 100 µM (inactive). Also, the GI50 with MDA-MB-435, with MOLT-4, with NCI-H226, in the assay with OVCAR-3, with OVCAR-5 and in the assay with PC-3 was > 100 µM (inactive) each time. In addition, the GI50 is > 100 µM (inactive) in the assay on RPMI-8226; > 100 µM (inactive) with SF-539; > 100 µM (inactive) in the assay on SK-MEL-2; > 100 µM (inactive) in the assay on SNB-19; 96.8 µM (inactive) in the assay on SNB-75; > 100 µM (inactive) with SW-620. Further, the GI50 with U-251 and with UACC-257 was > 100 µM (inactive) in each case.
As to `O=c1cnn(C2OC(C(O)CO)C(O)C2O)c(=O)[nH]1` (stereo not given), the GI50 with BT-549, in the assay on DU-145, in the assay on EKVX, with HOP-62, with Hs-578T and with K562 was > 100 µM (inactive) throughout. Besides, the GI50 with MDA-MB-435, in the assay with MOLT-4, with NCI-H226, in the assay on OVCAR-3, in the assay on OVCAR-5 and in the assay with PC-3 was > 100 µM (inactive) in each case. Besides, the GI50 in the assay with RPMI-8226, with SF-539, with SK-MEL-2, with SNB-19, in the assay on SNB-75 and with SW-620 was > 100 µM (inactive) each time. The GI50 in the assay on U-251 and in the assay on UACC-257 was > 100 µM (inactive) in each case.
Consider `C=CCN1C(=O)CS/C1=N\NC(=O)CSc1nc2ccccc2c(=O)n1CC`, for which the GI50 was > 100 µM (inactive) with BT-549; > 100 µM (inactive) with DU-145; > 100 µM (inactive) in the assay on EKVX; 84.1 µM (inactive) in the assay with HOP-62; > 100 µM (inactive) in the assay with Hs-578T; > 100 µM (inactive) with K562. Further, the GI50 with MDA-MB-435 is > 100 µM (inactive); in the assay with MOLT-4, > 100 µM (inactive); with NCI-H226, > 100 µM (inactive); in the assay with OVCAR-3, > 100 µM (inactive); in the assay with OVCAR-5 it was 84.1 µM (inactive); with PC-3, > 100 µM (inactive). In addition, the GI50 in the assay with RPMI-8226, in the assay with SF-539, in the assay on SK-MEL-2, in the assay with SNB-19, in the assay with SNB-75 and with SW-620 was > 100 µM (inactive) each time. In addition, the GI50 in the assay with U-251 and in the assay on UACC-257 was > 100 µM (inactive) in each case.
